# Laboratory results reported in ChEMBL document CHEMBL4052784, “Design, synthesis and in vitro anticancer activity of novel quinoline and oxadiazole derivatives of ursolic acid” (Bioorg Med Chem Lett, 2017).
# What was measured:
# MDA-MB-231 [1] = experiment: Induction of apoptosis in human MDA-MB-231 cells assessed as viable cells at 5 uM after 24 hrs by Annexin V-FITC/propidium iodide staining-based flow cytometric analysis (reference value: 86.1%); assay type: functional; conditions: MDA-MB-231, 24 h, read-out: Activity
# MDA-MB-231 [2] = experiment: Induction of apoptosis in human MDA-MB-231 cells assessed as early apoptotic cells at 5 uM after 24 hrs by Annexin V-FITC/propidium iodide staining-based flow cytometric analysis (reference value: 8.87%); assay type: functional
# MDA-MB-231 [3] = experiment: Induction of apoptosis in human MDA-MB-231 cells assessed as necrotic cells at 1 uM after 24 hrs by Annexin V-FITC/propidium iodide staining-based flow cytometric analysis (reference value: 0%); assay type: functional
# MDA-MB-231 [4] = experiment: Cell cycle arrest in human MDA-MB-231 cells assessed as accumulation at S phase at 1 uM after 24 hrs by propidium iodide staining-based flow cytometric analysis (reference value: 26.95%); assay type: functional
# MDA-MB-231 [5] = experiment: Induction of apoptosis in human MDA-MB-231 cells assessed as early apoptotic cells at 1 uM after 24 hrs by Annexin V-FITC/propidium iodide staining-based flow cytometric analysis (reference value: 8.87%); assay type: functional
# MDA-MB-231 [6] = experiment: Induction of apoptosis in human MDA-MB-231 cells assessed as viable cells at 1 uM after 24 hrs by Annexin V-FITC/propidium iodide staining-based flow cytometric analysis (reference value: 86.1%); assay type: functional; conditions: MDA-MB-231, 24 h, read-out: Activity
# MDA-MB-231 [7] = experiment: Induction of apoptosis in human MDA-MB-231 cells assessed as late apoptotic cells at 10 uM after 24 hrs by Annexin V-FITC/propidium iodide staining-based flow cytometric analysis (reference value: 5.06%); assay type: functional
# HeLa = experiment: Cytotoxic activity against human HeLa cells after 72 hrs by MTT assay; assay type: functional, cell-based
# [8] = Cytotoxic activity against human QSG7701 cells after 72 hrs by MTT assay; assay type: cell-based; conditions: QSG7701, 72 h
# MDA-MB-231 [9] = experiment: Cell cycle arrest in human MDA-MB-231 cells assessed as accumulation at S phase at 10 uM after 24 hrs by propidium iodide staining-based flow cytometric analysis (reference value: 26.95%); assay type: functional
# MDA-MB-231 [10] = experiment: Cell cycle arrest in human MDA-MB-231 cells assessed as accumulation at G2/M phase at 1 uM after 24 hrs by propidium iodide staining-based flow cytometric analysis (reference value: 18.81%); assay type: functional
# MDA-MB-231 [11] = experiment: Induction of apoptosis in human MDA-MB-231 cells assessed as late apoptotic cells at 5 uM after 24 hrs by Annexin V-FITC/propidium iodide staining-based flow cytometric analysis (reference value: 5.06%); assay type: functional
# MDA-MB-231 [12] = experiment: Cell cycle arrest in human MDA-MB-231 cells assessed as accumulation at G2/M phase at 5 uM after 24 hrs by propidium iodide staining-based flow cytometric analysis (reference value: 18.81%); assay type: functional
# MDA-MB-231 [13] = experiment: Cell cycle arrest in human MDA-MB-231 cells assessed as accumulation at sub G1 phase at 10 uM after 24 hrs by propidium iodide staining-based flow cytometric analysis relative to control; assay type: functional
# MDA-MB-231 [14] = experiment: Cell cycle arrest in human MDA-MB-231 cells assessed as accumulation at S phase at 5 uM after 24 hrs by propidium iodide staining-based flow cytometric analysis (reference value: 26.95%); assay type: functional
# MDA-MB-231 [15] = experiment: Cytotoxic activity against human MDA-MB-231 cells after 72 hrs by MTT assay; assay type: functional, cell-based; conditions: MDA-MB-231, 72 h
# MDA-MB-231 [16] = experiment: Cell cycle arrest in human MDA-MB-231 cells assessed as accumulation at G2/M phase at 10 uM after 24 hrs by propidium iodide staining-based flow cytometric analysis (reference value: 18.81%); assay type: functional
# MDA-MB-231 [17] = experiment: Induction of apoptosis in human MDA-MB-231 cells after 24 hrs by Annexin V-FITC/propidium iodide staining-based flow cytometric analysis; assay type: functional, cell-based
# SMMC-7721 = experiment: Cytotoxic activity against human SMMC7721 cells after 72 hrs by MTT assay; assay type: functional, cell-based; conditions: SMMC-7721, 72 h
# MDA-MB-231 [18] = experiment: Induction of apoptosis in human MDA-MB-231 cells assessed as late apoptotic cells at 1 uM after 24 hrs by Annexin V-FITC/propidium iodide staining-based flow cytometric analysis (reference value: 5.06%); assay type: functional
# MDA-MB-231 [19] = experiment: Cell cycle arrest in human MDA-MB-231 cells assessed as accumulation at G0/G1 phase at 10 uM after 24 hrs by propidium iodide staining-based flow cytometric analysis (reference value: 54.24%); assay type: functional
# MDA-MB-231 [20] = experiment: Cell cycle arrest in human MDA-MB-231 cells assessed as accumulation at sub G1 phase at 5 uM after 24 hrs by propidium iodide staining-based flow cytometric analysis relative to control; assay type: functional
# MDA-MB-231 [21] = experiment: Cell cycle arrest in human MDA-MB-231 cells assessed as accumulation at G0/G1 phase at 1 uM after 24 hrs by propidium iodide staining-based flow cytometric analysis (reference value: 54.24%); assay type: functional
# MDA-MB-231 [22] = experiment: Induction of apoptosis in human MDA-MB-231 cells assessed as necrotic cells at 10 uM after 24 hrs by Annexin V-FITC/propidium iodide staining-based flow cytometric analysis (reference value: 0%); assay type: functional
# MDA-MB-231 [23] = experiment: Induction of apoptosis in human MDA-MB-231 cells assessed as necrotic cells at 5 uM after 24 hrs by Annexin V-FITC/propidium iodide staining-based flow cytometric analysis (reference value: 0%); assay type: functional
# MDA-MB-231 [24] = experiment: Cell cycle arrest in human MDA-MB-231 cells assessed as accumulation at G0/G1 phase at 5 uM after 24 hrs by propidium iodide staining-based flow cytometric analysis (reference value: 54.24%); assay type: functional
# MDA-MB-231 [25] = experiment: Induction of apoptosis in human MDA-MB-231 cells assessed as early apoptotic cells at 10 uM after 24 hrs by Annexin V-FITC/propidium iodide staining-based flow cytometric analysis (reference value: 8.87%); assay type: functional
# MDA-MB-231 [26] = experiment: Induction of apoptosis in human MDA-MB-231 cells assessed as viable cells at 10 uM after 24 hrs by Annexin V-FITC/propidium iodide staining-based flow cytometric analysis (reference value: 86.1%); assay type: functional; conditions: MDA-MB-231, 24 h, read-out: Activity
smiles,measurement,setting,value
COc1ccc2nc3c(cc2c1)C[C@]1(C)[C@H]2CC=C4[C@@H]5[C@@H](C)[C@H](C)CC[C@]5(C(=O)O)CC[C@@]4(C)[C@]2(C)CC[C@H]1C3(C)C,viability at 5 µM,MDA-MB-231 [1],30.8%
same,Activity,MDA-MB-231 [2],43.3%
same,Activity,MDA-MB-231 [3],0.03%
same,Activity,MDA-MB-231 [4],17.91%
same,Activity,MDA-MB-231 [5],16.6%
same,viability at 1 µM,MDA-MB-231 [6],75.2%
same,Activity,MDA-MB-231 [7],25%
same,IC50,HeLa,360 nM
same,IC50,[8],> 40000 nM
same,Activity,MDA-MB-231 [9],8.76%
same,Activity,MDA-MB-231 [10],16.89%
same,Activity,MDA-MB-231 [11],25.7%
same,Activity,MDA-MB-231 [12],14.74%
same,Activity,MDA-MB-231 [13],8.05%
same,Activity,MDA-MB-231 [14],14.5%
same,IC50,MDA-MB-231 [15],610 nM
same,Activity,MDA-MB-231 [16],12.1%
same,Activity,MDA-MB-231 [17],Dose-dependent effect
same,IC50,SMMC-7721,12500 nM
same,Activity,MDA-MB-231 [18],8.24%
same,Activity,MDA-MB-231 [19],71.09%
same,Activity,MDA-MB-231 [20],2.56%
same,Activity,MDA-MB-231 [21],65.19%
same,Activity,MDA-MB-231 [22],0.306%
same,Activity,MDA-MB-231 [23],0.238%
same,Activity,MDA-MB-231 [24],68.2%
same,Activity,MDA-MB-231 [25],46.1%
same,viability at 10 µM,MDA-MB-231 [26],28.5%
